Source: paper PMC10829512, “Transport of metformin metabolites by guanidinium exporters of the small multidrug resistance family” (The Journal of General Physiology, 2024)
Several values for one entry are separate records, joined by “and”; a condition that tells them apart may be missing. Equal values may be shown once. Read-outs that look alike come from different tables or passages of the source.

Legend:
[1] = test system: Gdx-pAmi; experiment: SSM electrophysiology of Gdx-pAmi proteoliposomes; type: biochemical, Aminobacter sp. MET; settings: for Transport currents in substrate screen: 2 mM substrate; for Km: pH 7.5, mean ± SEM, read-out: Km determined using SSM electrophysiology
Experimental: Gdx-Clo ([Kermani et al., 2018]), Gdx-Eco ([Kermani et al., 2018]), EmrE ([Kermani et al., 2022]), and Gdx-pAmi ([Martinez-Vaz et al., 2022]) construct design and purification have been described previously. […] Proteins were overexpressed in C41(DE3). Expression was induced by the addition of 0.2 mM IPTG for 3 h. Cells were lysed and extracted with 2% n-decyl-β-D-maltoside (DM) for 2 h. After pelleting insoluble cell debris, proteins were purified using cobalt affinity resin. Wash buffer contained 25 mM Tris, pH 8.5, 150 mM NaCl, and 5 mM DM. For Gdx-pAmi, NaCl concentration was increased to 500 mM NaCl. The affinity column was washed with wash buffer, then wash buffer with 10 mM imidazole, prior to elution with wash buffer with 400 mM imidazole. For Gdx-Clo and Gdx-Eco, histidine tags were cleaved with LysC (200 ng/mg of protein; 2 h at room temperature; New England Biolabs), and for all others, histidine tags were cleaved with thrombin (1 U/mg of protein, overnight at room temperature; MilliporeSigma). Proteins were further purified using a gel filtration Superdex200 column (Cytiva) equilibrated with 100 mM NaCl, 10 mM N-2-hydroxyethylpiperazine-N′-2-ethanesulfonic acid (HEPES), pH 7.5, and 5 mM DM. Purified proteins were stored at 4°C for up to 5 days before detergent binding assays. To prepare proteoliposomes for electrophysiology assays, purified protein was mixed with E. coli polar lipid extract (10 mg/ml; Avanti Polar Lipids) solubilized with 35 mM 3-[(3-cholamidopropyl)dimethylammonio]-1-propanesulfonate (CHAPS) at a protein to lipid ratio of 40 μg SMR transporter: mg lipid (1:370 protein:lipid molar ratio) prior to detergent removal by dialysis. For preparations that included Fluc-Bpe, liposomes were reconstituted with a molar ratio of 0.3 Fluc-Bpe:1 SMRGdx: 5920 lipid (1 μg Fluc-Bpe and ∼2.5 μg SMRGdx per mg lipid). For liposome transport assays, proteoliposomes were prepared similarly, except that a 2:1 mixture of 1-palmitoyl, 2-oleoylphosphatidylethanolamine (POPE) and 1-palmitoyl, 2-oleoylphosphatidylglycerol (POPG) (10 mg/ml; Avanti Polar Lipids) was used with 0.2 μg protein/mg lipid. Proteoliposomes were stored at −80°C until use.
SSM experiments were performed using SURFE^2R N1 instrument (Nanion Technologies). Sensors were prepared with a 1,2-diphytanoyl-sn-glycero-3-phosphocholine (DPhPC) lipid monolayer according to published protocols ([Bazzone et al., 2017]). Each sensor’s capacitance and conductance were verified before use (<80 nF capacitance, <50 nS conductance) using Nanion software protocols. Proteoliposome stock was diluted 1:25 in assay buffer (100 mM KCl, 100 mM KPO4, pH 7.5) prior to adsorption to the DPhPC monolayer. For substrate screening experiments, reference substrate samples (Gdm^+ for SMRGdx, and TPA^+ for SMRQac) were checked periodically to test for the stability of the sensor; if the current amplitude of the reference compound differed by >10% on one sensor, it indicated the desorption of liposomes, and the sensor was not used for further experiments. For every SSM electrophysiology experiment, we used the same general solution exchange protocol: after 2 s perfusion with a non-activating solution, we perfused substrate-containing buffer for 2 s and then returned to the equilibrium condition with a 4 s perfusion of non-activating buffer. For experiments with the S104C/A70C crosslinked variant, reducing conditions were established by the addition of 2.5 mM tris(2-carboxyethyl)phosphine (TCEP) to the activating and non-activating buffers.
We screened a series of metformin metabolites for transport using SSM electrophysiology (Fig. 2, A and B).

[2] = biological target: T1, Gdx-Clo (Clostridiales bacterium oral taxon 876, UniProt U2EQ00); experiment: Tryptophan fluorescence substrate binding; design: species or system Clostridales oral taxon 876
T1 sequence (U2EQ00 1-105): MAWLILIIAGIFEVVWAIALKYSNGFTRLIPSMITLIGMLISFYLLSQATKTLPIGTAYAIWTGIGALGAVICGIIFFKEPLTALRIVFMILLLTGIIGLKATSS
Experimental: Fluorescence emission spectra (λex = 280 nm, […]) were collected for 1 µM purified protein in assay buffer containing 200 mM NaCl, 10 mM HEPES, 10 mM bicine, 10 mM NaPO4, and 5 mM DM, with pH adjusted from 6.5 to 9.0. Substrate was added from a stock solution prepared in assay buffer. For Gdm^+ titrations, the change in fluorescence, F, as a function of substrate fit to a single site binding isotherm, ∆F=(Fmax[S]/Kd+[S]). (3)
To derive the Ka values and Kd values from the apparent Kd measured as a function of pH, we used the following equation, which uses the approximation that the protonatable E13 sidechains have equal Ka values: Kd,app=(Kd)*(1+([H^+]/Ka))*(1+([H^+]/Ka)). (5)

[3] = biological target: T1, Gdx-Clo; experiment: Isothermal titration calorimetry (ITC); type: binding, Clostridales oral taxon 876; settings: for n: ITC binding stoichiometry, pH 8.5, mean ± SEM; for Kd / TΔS / ΔG / ΔH / Binding stoichiometry: ITC; for Kd / TΔS / ΔG / ΔH: pH 8.5, 25°C, mean ± SEM; for Binding stoichiometry: pH 8.5, exothermic binding
Experimental: ITC experiments were conducted using a low-volume Nano ITC instrument (TA Instruments). […] For each experiment, 300 µl of 700 µM Gdx-Clo was loaded in the sample chamber maintained at 25°C with 350 rpm stirring speed. […] The sample was titrated (0.75 µl injections) at 100-s increments. Once an acceptable baseline slope was achieved (0.30 µW/h and 0.03 µW standard deviation), a 200 s baseline (∼112 µW) was taken prior to beginning titrations. Data were analyzed using NanoAnalyze software.
For both substrates, the Kd value measured using ITC was in good agreement with the Kd value obtained using tryptophan fluorescence, validating the tryptophan fluorescence approach to monitor substrate binding.

[4] = biological target: Gdx-pPro (Citrobacter freundii, UniProt O69279); settings: for Transport currents in substrate screen: 2 mM substrate
Gdx-pPro, sequence (O69279 2-105): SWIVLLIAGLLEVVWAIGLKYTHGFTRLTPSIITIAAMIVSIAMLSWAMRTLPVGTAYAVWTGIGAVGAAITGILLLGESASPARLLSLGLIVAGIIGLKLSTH

[5] = pH 6.5, tryptophan fluorescence, mean ± SEM, read-out: Kd (apparent) for substrate binding to Gdx-Clo
[6] = pH 7.0, tryptophan fluorescence, mean ± SEM, read-out: Kd (apparent) for substrate binding to Gdx-Clo
[7] = pH 7.5, tryptophan fluorescence, mean ± SEM, read-out: Kd (apparent) for substrate binding to Gdx-Clo
[8] = pH 8.0, tryptophan fluorescence, mean ± SEM, read-out: Kd (apparent) for substrate binding to Gdx-Clo
[9] = pH 8.5, tryptophan fluorescence, mean ± SEM, read-out: Kd (apparent) for substrate binding to Gdx-Clo
[10] = pH-independent Kd, glutamates assumed to have equal Ka, read-out: Kd from fit of apparent Kd versus pH to Eq. 5

SMILES	Transport currents in substrate screen [1]	Km ([1]; listed as guanylurea) [mM]	Km [1]	Kd [2, 5] [µM]	Kd [2, 6] [µM]	Kd [2, 7] [µM]	Kd [2, 8] [µM]	Kd [2, 9] [µM]	Kd ([2]; pH 9.0, tryptophan fluorescence, mean ± SEM, read-out: Kd (apparent) for substrate binding to Gdx-Clo) [µM]	Kd [2, 10] [µM]	n [3]	Kd [3] [µM]	TΔS [3] [kcal/mol]	ΔG [3] [kcal/mol]	ΔH [3] [kcal/mol]	Binding stoichiometry [3]	Transport currents in substrate screen [4]	Turnover rate of Gdm+ relative to guanylurea ([1]; substrate at fivefold Km, normalized to Fluc-Bpe fluoride current and reconstitution efficiency)	Maximal velocity for Gdm+ relative to guanylurea ([4]; substrate at fivefold Km, normalized to Fluc-Bpe fluoride current)
N=C(N)NC(N)=O [Guanylurea, guanylurea]	negative capacitive currents	5	5.2 ± 2 mM	860 ± 220	190 ± 20	120 ± 20	59 ± 1	91 ± 16	63 ± 5	70	0.43 ± 0.03	140 ± 30	-1.8 ± 0.6	-5.4 ± 0.06	-7.2 ± 0.6	~1 substrate per protein dimer	negative capacitive currents	–	–
N=C(N)N [Gdm^+, guanidinium]	negative capacitive currents	–	16 mM and 15.7 mM	4300 ± 1000	1500 ± 300	960 ± 120	660 ± 80	480 ± 100	–	600	0.56 ± 0.04	410 ± 40	-0.3 ± 0.9	-4.6 ± 0.1	-4.9 ± 1.0	~1 substrate per protein dimer	negative capacitive currents	comparable	approximately twofold higher
